Key:
CYP 2B6 = CYP 2B6 induction in treated primary human hepatocytes (RNA assay, enzyme activity assay, LC-MSMS protein assay; FIG. 6); format: cell-based; settings: 72 hours, 3-MC 2 μM
Protocol: Flow rate was 700 μL/min.
The PB is a prototypical inducer for CYP 2B6, by CAR nuclear receptor activation.

CYP 1A2 [1] = experiment: RNA assay (mRNA by qRT-PCR, Taqman) for CYP 1A2 in treated human hepatocytes; format: cell-based; settings: primary human hepatocytes, 72 hours; 3-MC 2 μM; FIG. 7
CYP 3A4 = CYP 3A4 induction in treated primary human hepatocytes (RNA assay, enzyme activity assay, LC-MSMS protein assay; FIG. 8); settings: 72 hours, 3-MC 2 μM, PB 1 mM
CYP 1A2 [2] = settings: primary human hepatocytes, 72 hours; PB 1 mM, RIF 10 μM; FIG. 7

Cc1ccc2cc3c(ccc4ccccc43)c3c2c1CC3 [3-MC, 3-methylcholanthrene]
changes in expression of CYP 2B6 (induction) (CYP 2B6): induces basal levels
CYP 1A2 RNA level in RNA assay (CYP 1A2 [1]): very high levels of RNA
changes in expression of CYP 3A4 (induction) (CYP 3A4): minimally induces

CCC1(c2ccccc2)C(=O)NC(=O)NC1=O [PB, phenobarbital]
changes in expression of CYP 1A2 (induction) (CYP 1A2 [2]): basal levels of 1A2, if any
changes in expression of CYP 3A4 (induction) (CYP 3A4): significantly induces

Source: US9546393B2, “Mass spectrometry quantitation of P450 isoforms in hepatocytes” (DH Technologies Development Pte. Ltd., priority 2009, dated 2017)
